# From publication PMC5214846 (Structure (London, England : 1993), 2016)
# Like-named read-outs stand apart in the source and are kept apart here.
# How the values were obtained:
# ELIC-α1β3GABAAR = format: cell-based; details: for Modulation of ELIC-α1β3GABAAR at EC20: agonist EC20
# ELIC [1] = target: T1, ELIC (Dickeya chrysanthemi, UniProt P0C7B7); experiment: Functional measurements of Xenopus laevis oocytes expressing ELIC; details: for Modulation of ELIC at low agonist concentration (EC3) / Modulation of ELIC at EC20: representative traces; for Modulation of ELIC at EC20: agonist EC20
# ELIC [2] = target: T1, ELIC; details: cited from earlier work
# [3] = Highest soluble concentration of long-chain alcohols
# T1 sequence (P0C7B7 whole entry): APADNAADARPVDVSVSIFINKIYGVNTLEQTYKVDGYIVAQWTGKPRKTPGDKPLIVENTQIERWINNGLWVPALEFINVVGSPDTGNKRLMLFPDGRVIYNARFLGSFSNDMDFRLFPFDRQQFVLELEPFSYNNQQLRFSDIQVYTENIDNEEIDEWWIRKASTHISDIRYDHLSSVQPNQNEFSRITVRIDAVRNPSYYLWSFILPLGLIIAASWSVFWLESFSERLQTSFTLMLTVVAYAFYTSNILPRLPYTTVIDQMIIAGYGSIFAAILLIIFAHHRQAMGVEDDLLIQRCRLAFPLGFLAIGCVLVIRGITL
Structure (SMILES),Modulation of ELIC-α1β3GABAAR at low agonist concentration (EC3) (ELIC-α1β3GABAAR),Modulation of ELIC-α1β3GABAAR at EC20 (ELIC-α1β3GABAAR),Modulation of ELIC at low agonist concentration (EC3) (ELIC [1]),Modulation of ELIC at EC20 (ELIC [1]),also measured
"OCCBr [BrEtOH, 2-bromoethanol]",potentiate,some potentiation,inhibition,strongly inhibit,
"CCO [EtOH, ethanol]",potentiate,no inhibition,inhibition,strongly inhibit,
FC(F)OC(Cl)C(F)(F)F (stereo not drawn) [isoflurane],,,,,"Effect on ELIC (ELIC [2]; binding to the pore at 6′ and 13′ positions, ref Chen et al., 2015): inhibits"
CCCCCCCCCCO [n-decanol],,,,,"Inhibition of ELIC at highest soluble concentration (ELIC [1]; n-decanol ~0.3 mM, n-dodecanol ~0.02 mM, PPA-elicited current): much weaker inhibition than n-nonanol or n-hexanol; Highest soluble concentration [3]: ~ 0.3 mM"
CC(C)c1cccc(C(C)C)c1O [propofol],,,,,"Effect on ELIC (ELIC [2]; through a common TMD intra-subunit binding pocket, ref Kinde et al., 2016): inhibit"
